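A five-concentration, 48-hour dose response in 96-well plates underlies each endpoint, interpolated linearly between surrounding concentrations. TGI: concentration producing complete growth inhibition.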
Assays:
Assay in all cases: DTP human tumour cell line panel, 48 h
[1] = test system: A549 NSCLC
[2] = test system: PC-3 prostate
[3] = test system: SK-MEL-28 melanoma
[4] = test system: CCRF-CEM leukemia
[5] = test system: SF-539 CNS
[6] = test system: HCT-116 colon
[7] = test system: MDA-MB-435
[8] = test system: OVCAR-5 ovarian
[9] = test system: U251 CNS
[10] = test system: HOP-62 NSCLC
[11] = test system: HL-60(TB) leukemia
[12] = test system: HCT-15 colon
[13] = test system: SF-295 CNS
[14] = test system: LOX IMVI melanoma
[15] = test system: DU-145 prostate
[16] = test system: HCC-2998 colon
[17] = test system: OVCAR-4 ovarian
[18] = test system: UACC-257 melanoma
[19] = test system: SK-MEL-5 melanoma
[20] = test system: MDA-N
[21] = test system: SK-OV-3 ovarian
[22] = test system: IGROV1 ovarian
[23] = test system: MOLT-4 leukemia
[24] = test system: NCI-H460 lung
[25] = test system: MCF7 breast
[26] = test system: NCI/ADR-RES ovarian
[27] = test system: CAKI-1 renal
[28] = test system: MALME-3M melanoma
[29] = test system: COLO 205 colon
[30] = test system: HOP-92 NSCLC
[31] = test system: SN12C renal
[32] = test system: SNB-75 CNS
[33] = test system: HS 578T breast
[34] = test system: ACHN renal
[35] = test system: K-562 leukemia
[36] = test system: EKVX NSCLC
[37] = test system: UACC-62 melanoma
[38] = test system: SW-620 colon
[39] = test system: MDA-MB-231 breast
[40] = test system: SF-268 CNS
[41] = test system: 786-0 renal
[42] = test system: OVCAR-3 ovarian
[43] = test system: TK-10 renal
[44] = test system: KM12 colon
[45] = test system: HT29 colon
[46] = test system: OVCAR-8 ovarian
[47] = test system: NCI-H23 lung
[48] = test system: T-47D breast
[49] = test system: M14 melanoma
[50] = test system: RPMI-8226 leukemia
[51] = test system: UO-31 renal
[52] = test system: SK-MEL-2 melanoma
[53] = test system: NCI-H226 lung
[54] = test system: SR leukemia

Measured: TGI

COC(=O)C1(Cc2ccccc2)Cc2ccccc2C1=O (centres undefined)
53.4 µM: [7]
51.1 µM: [11]
39.3 µM: [28]
44 µM: [19]
85.9 µM: [9]
78.3 µM: [54]
94.6 µM: [20]
65.5 µM: [52]
> 100 µM: [1] | [2] | [3] | [4] | [5] | [6] | [8] | [10] | [12] | [13] | [14] | [15] | [16] | [17] | [18] | [21] | [22] | [24] | [25] | [27] | [29] | [30] | [31] | [32] | [33] | [34] | [35] | [36] | [37] | [38] | [39] | [40] | [41] | [42] | [43] | [44] | [45] | [46] | [47] | [48] | [49] | [50] | [51] | [53]
90.9 µM: [23]
72.3 µM: [26]

— PubChem BioAssay (NCI)
